Measured values as given in patent US20250290915A1, “METHOD FOR PREDICTING RESPONSIVENESS TO THERAPY” (CANCERTAIN LIMITED, priority 2022, published 2025).

Assays:
Type in all cases: cell-based, human
[1] = test system: Circulating Tumour Cells (CTCs) from a patient with sex cord stromal tumour, ovarian tumour; test: Drug response score assay on CTCs from blood, Example 4; design: key to Drug response score, conc. 1 / Drug response score, conc. 2 / Drug response score, conc. 3 / Drug response score, conc. 4: normalized drug response metric (Gupta et al. 2020); settings: for Drug response score, conc. 1: conc. 1: Cyclo 2.5 μg/ml, Vinc 10 ng/ml, Etop 1 μg/ml, Bini 100 ng/ml, Doxo 10 ng/ml; for Drug response score, conc. 1 / Drug response score, conc. 2 / Drug response score, conc. 3 / Drug response score, conc. 4: CTCs, t96h; for Drug response score, conc. 2: conc. 2: Cyclo 10 μg/ml, Vinc 20 ng/ml, Etop 4 μg/ml, Bini 200 ng/ml, Doxo 30 ng/ml; for Drug response score, conc. 3: conc. 3: Cyclo 40 μg/ml, Vinc 40 ng/ml, Etop 20 μg/ml, Bini 400 ng/ml, Doxo 90 ng/ml; for Drug response score, conc. 4: conc. 4: Cyclo 160 μg/ml, Vinc 80 ng/ml, Etop 100 μg/ml, Bini 800 ng/ml, Doxo 270 ng/ml; for effectiveness on Circulating Tumour Cells (CTCs) under laboratory conditions / Drug sensitivity as calculated by the assay (interpretation of Drug Response Scores): sex cord stromal / ovarian tumour CTCs; for Drug sensitivity as calculated by the assay (interpretation of Drug Response Scores): Table 14
Method: (§1) CD45^+ cells and circulating tumour cells (CTCs) were isolated from a blood sample provided by each subject.
(§2) CD45 separation was performed by adding human CD45 microbeads (50 μl/ml blood), incubating for 15 minutes at 4° C. and then processing using an AutoMACS machine. This separates the blood sample into CD45^+ and CD45^−cells in 2 separate falcons. The falcon tubes are then centrifuged at 1200 rpm for 5 minutes.
(§3) The supernatant was removed from the CD45^−falcon tube, and the CD45^−cells contacted with 100 μl of FcR block and 100 μl of CD326 (EpCAM) MicroBeads, followed by incubation at […] 4° C. for 30 minutes. The CD45^−cells were then processed using an AutoMACS machine to separate the EpCAM positive and negative cells into 2 separate falcon tubes. The EpCAM-cells were discarded. The supernatant was removed from the EpCAM^+ cells, and the cells resuspended in DMEM with 2 μl Cell Tox, 2 μl MT and 2 μl MT. 20 μl of the resuspended pellet was then added to all sample wells excluding a blank. After all wells are added to, a cell count was conducted on the […] to determine the number of circulating tumour cells (CTCs).
(§4) The different cell types were each divided equally into populations, depending on the number of drugs/concentrations to be tested and plated on a cell-culture plate pre-coated with a scaffold of polycaprolactone (PCL) electrospun fibres and incubated at 37° C., 5% CO2, for 5 to (typically 10) minutes to facilitate cell attachment. After attachment, an initial imaging step was carried out using the RealTime-Glo™ MT assay from Promega (Catalogue No. G9711)) and the CellTox™ Green Cytotoxicity Assay (Promega, Catalogue No. G8741), carried out according to manufacturer's instructions. Following this initial imagining, the immunotherapeutic and/or chemotherapeutic agents were added to the cell populations as indicated below. After 10 minutes, the imagining step was repeated. The cell populations were then incubated at 37° C., 5% CO2 for 48 hours. The imaging step was then repeated. The cell populations were then re-dosed with the same immunotherapeutic and/or chemotherapeutic agents as indicated below, and incubated at 37° C., 5% CO2 for a further 48 hours. After this second 48 hour incubation, the imagining step was repeated for a final time.
(§5) At the end of this culture period, dose response scores were calculated using a normalized drug response metric as described in Gupta et al. (Communications Biology volume 3, Article number: 42 (2020), https://doi.org/10.1038/s42003-020-0765-z). The start readout for a given immunotherapeutic or chemotherapeutic agent at a given concentration was the to readout for said immunotherapeutic or chemotherapeutic agent at a specified concentration. The end readout for a given immunotherapeutic or chemotherapeutic agent at a given concentration was the final timepoint reading (t96h) for said immunotherapeutic or chemotherapeutic agent at a specified concentration.
(§6) The positive control start readout for a given drug/concentration was the to readout for the corresponding drug at a specified concentration. The positive control end readout for the corresponding drug at a specified concentration was the final timepoint reading (t96h) for the corresponding blank well.
(§7) The negative control start and end readouts for a given immunotherapeutic or chemotherapeutic agent at a given concentration were the to and final timepoint reading (t96h) respectively for blank cell or blank immuno cell well respectively.
(§8) The sensitivity or resistance of a subject's cancer to a given immunotherapeutic or chemotherapeutic agent was determined based on the calculated drug response score as shown in Table 2.
Blood samples from a patient with sex cord stromal tumour, ovarian tumour (epitheliod neoplasm, stage 3 recurrence after surgery (resection) and previous chemotherapy) were received on 19 Jul. 2021 and tested using a 5 drug panel. […]

[2] = test system: Circulating Tumour Cells (CTCs, EpCam+CD45−) from a patient with stage II synovial sarcoma; test: Drug response score assay (RealTime-Glo MT / CellTox Green, PCL scaffold) on CTCs from blood, Example 1; design: key to Drug response score, conc. 1 / Drug response score, conc. 2 / Drug response score, conc. 3 / Drug response score, conc. 4: normalized drug response metric per Gupta et al. 2020; settings: for Drug response score, conc. 1: conc. 1: Doxo 10 ng/ml, Ifos 0.125 μg/ml, Gemcit 2 μg/ml, Doce 0.02 μg/ml, Carbo 2 μg/ml, Dacarb 1.5 μg/ml, re-dosed at 48 h; for Drug response score, conc. 1 / Drug response score, conc. 2 / Drug response score, conc. 3 / Drug response score, conc. 4: CTCs, t96h; for Drug response score, conc. 2: conc. 2: Doxo 30 ng/ml, Ifos 0.25 μg/ml, Gemcit 10 μg/ml, Doce 0.2 μg/ml, Carbo 5 μg/ml, Dacarb 3 μg/ml; for Drug response score, conc. 3: conc. 3: Doxo 90 ng/ml, Ifos 5 μg/ml, Gemcit 20 μg/ml, Doce 2 μg/ml, Carbo 10 μg/ml, Dacarb 6 μg/ml; for Drug response score, conc. 4: conc. 4: Doxo 270 ng/ml, Ifos 10 μg/ml, Gemcit 40 μg/ml, Doce 10 μg/ml, Carbo 20 μg/ml, Dacarb 12 μg/ml
Method: as §1, §2, §3, §4, §5, §6, §7, §8
Blood samples from a patient with stage II synovial sarcoma (suspected spindle cell tumour) were received and tested using a 6 drug panel.
Chemotherapeutic agents were tested as in Table 3.

[3] = test system: Circulating Tumour Cells (CTCs) from a patient with colon cancer (sigmoid colon cancer); test: Drug response score assay on CTCs from blood, Example 8; design: key to Drug response score, conc. 1 / Drug response score, conc. 2 / Drug response score, conc. 3 / Drug response score, conc. 4: normalized drug response metric (Gupta et al. 2020); settings: for Drug response score, conc. 1: conc. 1 of each drug as in Table 24; for Drug response score, conc. 1 / Drug response score, conc. 2 / Drug response score, conc. 3 / Drug response score, conc. 4: CTCs, t96h; for Drug response score, conc. 2: conc. 2 of each drug as in Table 24; for Drug response score, conc. 3: conc. 3 of each drug as in Table 24; for Drug response score, conc. 4: conc. 4 of each drug as in Table 24; for Drug sensitivity as calculated by the assay (interpretation of Drug Response Scores): Table 26
Method: as §1, §2, §3
as §4, with “After” for “The different cell types were each divided equally into populations, depending on the number of drugs/concentrations to be tested and plated on a cell-culture plate pre-coated with a scaffold of polycaprolactone (PCL) electrospun fibres and incubated at 37° C., 5% CO2, for 5 to (typically 10) minutes to facilitate cell attachment. After”
as §5, §6, §7, §8
Blood samples from a patient with colon cancer (sigmoid colon cancer) were received on 8 Mar. 2022 and tested using a 9 drug panel.
Chemotherapeutic agents were tested as in Table 24.

[4] = test system: Circulating Tumour Cells (CTCs) from a patient with renal cancer; test: Drug response score assay on CTCs (with CD45+ cells for immunotherapy) from blood, Example 7; design: key to Drug response score, conc. 1 / Drug response score, conc. 2 / Drug response score, conc. 3 / Drug response score, conc. 4: normalized drug response metric per Gupta et al. 2020; settings: for Drug response score, conc. 1: conc. 1: Pembr 20 μg/ml (CTCs + CD45+ cells), Docetax 0.02 μg/ml, Gemcit 2 μg/ml, Topo 5 μg/ml, Etop 1 μg/ml, Eribul 5 μg/ml (CTCs); for Drug response score, conc. 1 / Drug response score, conc. 2 / Drug response score, conc. 3 / Drug response score, conc. 4: t96h; for Drug response score, conc. 2: conc. 2: Pembr 40 μg/ml (CTCs + CD45+ cells), Docetax 0.2 μg/ml, Gemcit 10 μg/ml, Topo 10 μg/ml, Etop 4 μg/ml, Eribul 10 μg/ml (CTCs); for Drug response score, conc. 3: conc. 3: Pembr 100 μg/ml (CTCs + CD45+ cells), Docetax 2 μg/ml, Gemcit 20 μg/ml, Topo 50 μg/ml, Etop 20 μg/ml, Eribul 20 μg/ml (CTCs); for Drug response score, conc. 4: conc. 4: Pembr 160 μg/ml (CTCs + CD45+ cells), Docetax 10 μg/ml, Gemcit 40 μg/ml, Topo 100 μg/ml, Etop 100 μg/ml, Eribul 40 μg/ml (CTCs); for Drug sensitivity as calculated by the assay (interpretation of Drug Response Scores): Table 23
Method: as §1, §2
The supernatant was removed from the CD45^+falcon tube, and the cells resuspended in DMEM with 2 μl Cell Tox, 2 μl MT and 2 μl MT. 20 μl of the resuspended CD45^+ cells was then plated in each well which will contain an immunotherapy treatment.
as §3, §4, §5, §6, §7
The sensitivity or resistance of a subject's cancer to a given immunotherapeutic or chemotherapeutic agent was determined based on the calculated drug response score as shown in Table 2. […]

SMILES	Drug response score, conc. 1 [1]	Drug response score, conc. 2 [1]	Drug response score, conc. 3 [1]	Drug response score, conc. 4 [1]	effectiveness on Circulating Tumour Cells (CTCs) under laboratory conditions [1]	Drug sensitivity as calculated by the assay (interpretation of Drug Response Scores) [1]	Drug response score, conc. 1 [3]	Drug response score, conc. 2 [3]	Drug response score, conc. 3 [3]	Drug response score, conc. 4 [3]	Drug sensitivity as calculated by the assay (interpretation of Drug Response Scores) ([3]; sigmoid colon cancer CTCs)	other results
Cn1cnc2c(F)c(Nc3ccc(Br)cc3F)c(C(=O)NOCCO)cc21 [Binimetinib]	0.93	1.18	1.19	1.06	not effective	Resistant						
CN(C)/N=N/c1[nH]cnc1C(N)=O [Dacarbazine]												Drug response score, conc. 1 [2]: 2.1563; Drug response score, conc. 2 [2]: 0.0887; Drug response score, conc. 3 [2]: 0.1691; Drug response score, conc. 4 [2]: 0.5700
O=P1(N(CCCl)CCCl)NCCCO1 (stereo not drawn) [Cyclophosphamide]	0.97	0.58	0.41	0.94	show effectiveness	Sensitive (S++)	−0.3176	0.9581	0.6810	2.5058	Sensitive (S+)	effectiveness on Circulating Tumour Cells under laboratory conditions ([3]; sigmoid colon cancer CTCs): S+
N.N.O=C([O-])C1(C(=O)[O-])CCC1.[Pt+2] [Carboplatin]							6.6672	−0.0506	−0.8131	−0.1322	Sensitive (S++)	Drug response score, conc. 1 [2]: 1.4015; Drug response score, conc. 2 [2]: 0.6497; Drug response score, conc. 3 [2]: 0.4151; Drug response score, conc. 4 [2]: 0.4317; Drug sensitivity as calculated by the assay (interpretation of Drug Response Scores) ([2]; synovial sarcoma CTCs, Table 5): Sensitive (S+)
C=C1C[C@@H]2CC[C@@]34C[C@H]5O[C@H]6[C@@H](O3)[C@H]3O[C@H](CC[C@@H]3O[C@H]6[C@H]5O4)CC(=O)C[C@@H]3[C@@H](OC)[C@@H](C[C@H](O)CN)O[C@H]3C[C@H]3O[C@@H](CC[C@@H]1O2)C[C@@H](C)C3=C [Eribuline]							4.4627	−0.1620	−0.0329	−0.4785	Sensitive (S++)	Drug response score, conc. 1 [4]: 0.4482; Drug response score, conc. 2 [4]: 0.0692; Drug response score, conc. 3 [4]: −0.1453; Drug response score, conc. 4 [4]: −0.0193; Drug sensitivity as calculated by the assay (interpretation of Drug Response Scores) ([4]; renal cancer CTCs): Sensitive (S+)
CC[C@@]1(O)C(=O)OCc2c1cc1n(c2=O)Cc2cc3c(CN(C)C)c(O)ccc3nc2-1 [Topotecan]												Drug response score, conc. 1 [4]: 0.1847; Drug response score, conc. 2 [4]: −0.0648; Drug response score, conc. 3 [4]: −0.0964; Drug response score, conc. 4 [4]: −0.1707; effectiveness on Circulating Tumour Cells under laboratory conditions ([4]; renal cancer CTCs): Sensitive S++; Drug sensitivity as calculated by the assay (interpretation of Drug Response Scores) ([4]; renal cancer CTCs): Sensitive (S++)
CC[C@]1(O)C[C@H]2CN(CCc3c([nH]c4ccccc34)[C@@](C(=O)OC)(c3cc4c(cc3OC)N(C=O)[C@H]3[C@@](O)(C(=O)OC)[C@H](OC(C)=O)[C@]5(CC)C=CCN6CC[C@]43[C@@H]65)C2)C1 [Vincristine]	3.35	1.24	1.83	1.29	not effective	Resistant						
